From ChEMBL document CHEMBL5291721, “A preclinical secondary pharmacology resource illuminates target-adverse drug reaction associations of marketed drugs” (Nat Commun, 2023) come the findings set out here.

For one assay, the target named is T1, Estrogen receptor (Homo sapiens, UniProt P03372).
T1 sequence (P03372 whole entry): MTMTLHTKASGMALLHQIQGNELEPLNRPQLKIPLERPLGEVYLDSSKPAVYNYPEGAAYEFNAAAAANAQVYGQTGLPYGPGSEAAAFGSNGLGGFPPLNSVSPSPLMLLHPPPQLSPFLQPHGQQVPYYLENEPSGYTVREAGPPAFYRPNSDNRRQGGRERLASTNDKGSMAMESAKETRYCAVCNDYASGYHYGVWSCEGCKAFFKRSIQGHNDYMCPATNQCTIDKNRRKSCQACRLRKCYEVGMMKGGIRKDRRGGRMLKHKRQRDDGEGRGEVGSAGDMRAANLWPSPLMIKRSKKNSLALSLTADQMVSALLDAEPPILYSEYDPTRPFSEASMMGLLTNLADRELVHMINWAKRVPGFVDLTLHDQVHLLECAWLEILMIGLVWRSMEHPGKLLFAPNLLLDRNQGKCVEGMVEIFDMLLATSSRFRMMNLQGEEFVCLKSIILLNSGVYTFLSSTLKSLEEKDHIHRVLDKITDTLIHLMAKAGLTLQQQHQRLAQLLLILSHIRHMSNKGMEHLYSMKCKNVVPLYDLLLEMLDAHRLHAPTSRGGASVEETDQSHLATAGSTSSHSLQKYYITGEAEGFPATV

The next assay has as its target D(3) dopamine receptor (Homo sapiens, UniProt P35462).
For a further assay, the target named is T2, Adenosine receptor A3 (Homo sapiens, UniProt P0DMS8).
T2 sequence (P0DMS8 whole entry): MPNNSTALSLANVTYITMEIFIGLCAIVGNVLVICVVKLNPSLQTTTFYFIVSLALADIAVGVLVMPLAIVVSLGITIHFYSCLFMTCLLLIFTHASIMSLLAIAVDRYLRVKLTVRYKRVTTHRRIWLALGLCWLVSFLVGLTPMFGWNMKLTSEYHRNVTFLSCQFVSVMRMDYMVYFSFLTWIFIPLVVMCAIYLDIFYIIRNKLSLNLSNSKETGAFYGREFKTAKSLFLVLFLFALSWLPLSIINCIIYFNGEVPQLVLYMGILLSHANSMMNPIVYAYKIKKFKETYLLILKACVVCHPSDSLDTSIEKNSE

Assay [1] has as its target Neuronal acetylcholine receptor subunit alpha-4 (Homo sapiens, UniProt P43681).
Another assay concerns the target T3, B2 bradykinin receptor (Homo sapiens, UniProt P30411).
T3 sequence (P30411 whole entry): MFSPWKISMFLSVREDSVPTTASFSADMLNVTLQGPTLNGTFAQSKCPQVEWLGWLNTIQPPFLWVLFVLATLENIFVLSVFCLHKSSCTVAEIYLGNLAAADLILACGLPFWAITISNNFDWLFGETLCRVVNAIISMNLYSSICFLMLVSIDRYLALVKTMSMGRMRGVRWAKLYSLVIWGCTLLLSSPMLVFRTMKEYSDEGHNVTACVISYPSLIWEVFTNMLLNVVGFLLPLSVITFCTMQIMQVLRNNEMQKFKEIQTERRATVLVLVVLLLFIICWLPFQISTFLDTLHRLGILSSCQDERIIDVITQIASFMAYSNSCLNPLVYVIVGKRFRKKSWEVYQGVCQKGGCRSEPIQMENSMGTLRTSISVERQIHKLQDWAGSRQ

A further assay addresses Histamine H3 receptor (Homo sapiens, UniProt Q9Y5N1).
In a further assay the target is T4, Adenosine receptor A1 (Homo sapiens, UniProt P30542).
T4 sequence (P30542 whole entry): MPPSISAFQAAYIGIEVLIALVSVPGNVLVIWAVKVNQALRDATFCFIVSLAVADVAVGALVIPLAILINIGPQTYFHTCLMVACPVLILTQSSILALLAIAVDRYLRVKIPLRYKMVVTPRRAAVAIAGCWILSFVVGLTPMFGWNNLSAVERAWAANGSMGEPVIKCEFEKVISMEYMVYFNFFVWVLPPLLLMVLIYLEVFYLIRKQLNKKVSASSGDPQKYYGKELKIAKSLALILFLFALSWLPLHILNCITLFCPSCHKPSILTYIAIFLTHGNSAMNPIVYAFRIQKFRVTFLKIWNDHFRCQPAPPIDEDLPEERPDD

The target in assay [2] is T5, Equilibrative nucleoside transporter 1 (Homo sapiens, UniProt Q99808).
T5 sequence (Q99808 whole entry): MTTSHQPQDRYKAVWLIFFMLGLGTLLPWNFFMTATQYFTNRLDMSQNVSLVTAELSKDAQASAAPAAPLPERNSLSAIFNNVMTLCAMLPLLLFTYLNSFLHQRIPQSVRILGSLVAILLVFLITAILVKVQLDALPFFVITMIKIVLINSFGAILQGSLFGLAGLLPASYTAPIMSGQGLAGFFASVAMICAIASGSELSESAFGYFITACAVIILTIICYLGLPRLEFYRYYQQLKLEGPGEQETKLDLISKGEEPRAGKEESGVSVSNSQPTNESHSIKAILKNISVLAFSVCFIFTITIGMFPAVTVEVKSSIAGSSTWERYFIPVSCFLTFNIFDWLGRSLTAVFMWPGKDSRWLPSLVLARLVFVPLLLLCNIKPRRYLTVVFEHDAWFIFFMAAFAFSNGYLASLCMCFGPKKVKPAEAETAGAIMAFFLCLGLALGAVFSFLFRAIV

The target in assay [3] is Beta-2 adrenergic receptor (Homo sapiens, UniProt P07550).
The target of assay [4] is Growth hormone secretagogue receptor type 1 (Homo sapiens, UniProt Q92847).

A value given as a limit tells only on which side of the number the result lay.
Also: assay procedure not described here.

Neuronal acetylcholine receptor subunit alpha-4, sequence (P43681 whole entry): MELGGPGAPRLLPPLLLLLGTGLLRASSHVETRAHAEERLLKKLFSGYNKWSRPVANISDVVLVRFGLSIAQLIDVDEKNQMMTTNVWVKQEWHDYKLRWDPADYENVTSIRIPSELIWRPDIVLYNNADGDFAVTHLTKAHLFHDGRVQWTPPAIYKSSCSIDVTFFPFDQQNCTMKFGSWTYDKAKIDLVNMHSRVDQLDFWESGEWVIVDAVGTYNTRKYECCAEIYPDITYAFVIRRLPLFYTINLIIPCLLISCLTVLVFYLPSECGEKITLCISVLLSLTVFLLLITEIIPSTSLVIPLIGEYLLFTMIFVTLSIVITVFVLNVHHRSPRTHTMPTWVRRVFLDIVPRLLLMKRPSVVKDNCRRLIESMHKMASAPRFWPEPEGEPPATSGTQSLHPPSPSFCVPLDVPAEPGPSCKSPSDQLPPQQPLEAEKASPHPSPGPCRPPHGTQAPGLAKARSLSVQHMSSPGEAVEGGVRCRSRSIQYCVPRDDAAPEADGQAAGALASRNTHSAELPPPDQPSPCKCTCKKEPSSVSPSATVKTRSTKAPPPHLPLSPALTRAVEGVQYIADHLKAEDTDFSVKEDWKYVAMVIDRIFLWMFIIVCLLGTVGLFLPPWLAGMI
D(3) dopamine receptor, sequence (P35462 whole entry): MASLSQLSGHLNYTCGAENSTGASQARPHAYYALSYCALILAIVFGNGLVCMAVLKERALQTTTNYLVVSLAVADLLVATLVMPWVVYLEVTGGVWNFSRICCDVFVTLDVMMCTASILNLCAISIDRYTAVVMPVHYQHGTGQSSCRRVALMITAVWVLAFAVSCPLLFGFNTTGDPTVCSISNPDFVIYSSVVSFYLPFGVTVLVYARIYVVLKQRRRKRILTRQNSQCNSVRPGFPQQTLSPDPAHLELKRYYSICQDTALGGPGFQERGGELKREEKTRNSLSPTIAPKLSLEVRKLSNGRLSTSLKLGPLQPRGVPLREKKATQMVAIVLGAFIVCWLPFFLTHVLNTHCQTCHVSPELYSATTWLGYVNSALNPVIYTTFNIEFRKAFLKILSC
Beta-2 adrenergic receptor, sequence (P07550 whole entry): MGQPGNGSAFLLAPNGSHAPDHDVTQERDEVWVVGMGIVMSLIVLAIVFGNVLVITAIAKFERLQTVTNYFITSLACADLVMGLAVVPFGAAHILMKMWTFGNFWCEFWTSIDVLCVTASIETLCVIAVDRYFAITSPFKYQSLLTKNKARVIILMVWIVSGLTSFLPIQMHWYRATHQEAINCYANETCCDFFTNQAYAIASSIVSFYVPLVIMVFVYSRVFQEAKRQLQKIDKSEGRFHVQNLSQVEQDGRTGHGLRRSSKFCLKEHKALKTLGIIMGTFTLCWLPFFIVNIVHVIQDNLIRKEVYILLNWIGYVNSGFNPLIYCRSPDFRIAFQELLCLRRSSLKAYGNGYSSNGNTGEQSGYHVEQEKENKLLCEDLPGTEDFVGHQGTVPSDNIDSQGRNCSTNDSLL
Histamine H3 receptor, sequence (Q9Y5N1 whole entry): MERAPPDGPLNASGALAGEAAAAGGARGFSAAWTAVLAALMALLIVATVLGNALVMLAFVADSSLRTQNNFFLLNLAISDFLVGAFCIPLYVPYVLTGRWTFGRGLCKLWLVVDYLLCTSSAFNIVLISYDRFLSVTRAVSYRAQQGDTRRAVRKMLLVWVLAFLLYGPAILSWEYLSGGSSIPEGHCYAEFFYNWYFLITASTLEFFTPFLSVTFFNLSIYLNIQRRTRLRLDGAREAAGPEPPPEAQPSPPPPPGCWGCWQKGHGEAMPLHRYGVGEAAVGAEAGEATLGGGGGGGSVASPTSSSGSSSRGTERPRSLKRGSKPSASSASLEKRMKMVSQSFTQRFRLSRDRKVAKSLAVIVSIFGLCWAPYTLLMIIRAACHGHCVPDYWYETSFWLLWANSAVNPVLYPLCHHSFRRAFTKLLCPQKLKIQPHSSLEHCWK
Growth hormone secretagogue receptor type 1, sequence (Q92847 whole entry): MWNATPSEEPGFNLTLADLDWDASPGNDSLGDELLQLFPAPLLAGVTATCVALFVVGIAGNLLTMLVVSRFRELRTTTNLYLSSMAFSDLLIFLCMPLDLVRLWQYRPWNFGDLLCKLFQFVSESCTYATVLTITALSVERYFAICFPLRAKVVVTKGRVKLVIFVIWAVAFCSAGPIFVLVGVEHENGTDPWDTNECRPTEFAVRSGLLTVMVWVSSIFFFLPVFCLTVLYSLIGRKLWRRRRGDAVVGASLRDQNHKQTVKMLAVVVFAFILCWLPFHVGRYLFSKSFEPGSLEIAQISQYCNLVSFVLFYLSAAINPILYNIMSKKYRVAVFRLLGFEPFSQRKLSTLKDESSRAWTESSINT

Regarding `O=C(O)c1ccccc1` [BENZOIC ACID], on Estrogen receptor, the AC50 is more than 30 µM.

The compound `Nc1c(CC(=O)O)cccc1C(=O)c1ccc(Br)cc1` [BROMFENAC] yielded an AC50 at Estrogen receptor of more than 30 µM.

Turning to `CC(C)NC(=N)NC(=N)Nc1ccc(Cl)c(Cl)c1` [CHLORPROGUANIL], the AC50 on D(3) dopamine receptor and at Estrogen receptor was more than 30 µM in each case.

Turning to `Cc1cc(C2CCCCC2)n(O)c(=O)c1` [CICLOPIROX], the AC50 (at Adenosine receptor A3; in assay [1]; at Estrogen receptor) was more than 30 µM throughout.

Regarding `Cc1nc(Nc2ncc(C(=O)Nc3c(C)cccc3Cl)s2)cc(N2CCN(CCO)CC2)n1` [DASATINIB], the AC50 at B2 bradykinin receptor was more than 30 µM; at Histamine H3 receptor, 12.7 µM; on Adenosine receptor A3, 21.5 µM; at D(3) dopamine receptor it was more than 30 µM; at Adenosine receptor A1, more than 30 µM; in [1], more than 30 µM. For the same compound, the AC50 is more than 30 µM in assay [2], more than 10 µM in [3] and more than 30 µM in [4].

As for `O=C(O)Cc1ccccc1Nc1c(Cl)cccc1Cl` [DICLOFENAC], the AC50 at B2 bradykinin receptor is more than 30 µM; at Histamine H3 receptor, more than 10 µM; at Adenosine receptor A3, more than 30 µM; at D(3) dopamine receptor, more than 10 µM; at Adenosine receptor A1 it was more than 30 µM; in assay [1] it was more than 10 µM. In addition, the half-maximal activity concentration (AC50) in assay [2] was more than 30 µM; in assay [3], more than 10 µM; in assay [4] it was more than 30 µM.

In the case of `CC1(C)O[C@@H]2C[C@H]3[C@@H]4C[C@H](F)C5=CC(=O)C=C[C@]5(C)[C@@]4(F)[C@@H](O)C[C@]3(C)[C@]2(C(=O)CO)O1` [FLUOCINOLONE ACETONIDE], at Estrogen receptor, the AC50 was more than 30 µM.

As to `C#C[C@]1(O)C=C[C@H]2[C@@H]3CCC4=CC(=O)CC[C@@H]4[C@H]3CC[C@@]21CC` [GESTODENE], the AC50 at Estrogen receptor is 1.2 µM.

At Estrogen receptor, `N=C(N)N/N=C/c1c(Cl)cccc1Cl` [GUANABENZ] returned an AC50 of more than 30 µM.

As for `CCCCCCCN(CC)CCCC(O)c1ccc(NS(C)(=O)=O)cc1` (stereo not given) [IBUTILIDE], the AC50 at B2 bradykinin receptor is more than 30 µM; at Histamine H3 receptor it was more than 30 µM; on Adenosine receptor A3, more than 30 µM; at D(3) dopamine receptor, 4.3 µM; at Adenosine receptor A1, more than 30 µM; in [1] it was more than 30 µM. For the same compound, the concentration at half-maximal activity (AC50) in [2], in [3] and in assay [4] was more than 30 µM each time.

As for `CC[C@H](C)C(=O)O[C@H]1C[C@@H](C)C=C2C=C[C@H](C)[C@H](CC[C@@H]3C[C@@H](O)CC(=O)O3)[C@H]21` [LOVASTATIN], the AC50 on B2 bradykinin receptor is more than 30 µM; at Histamine H3 receptor, more than 10 µM; on Adenosine receptor A3 it was 28.5 µM; at D(3) dopamine receptor, more than 10 µM; at Adenosine receptor A1, more than 30 µM; in assay [1], more than 10 µM. Further, the AC50 in assay [2] is more than 30 µM; in assay [3] it was more than 10 µM; in assay [4] it was more than 30 µM.

`CC[C@@H](CO)NC(=O)[C@@H]1C=C2c3cccc4c3c(cn4C)C[C@H]2N(C)C1` [METHYSERGIDE]: the AC50 was more than 30 µM on B2 bradykinin receptor; more than 10 µM on Histamine H3 receptor; more than 30 µM at Adenosine receptor A3; 0.42 µM at D(3) dopamine receptor; more than 30 µM on Adenosine receptor A1; more than 10 µM in assay [1]. The AC50 in assay [2] was more than 30 µM; in [3] it was more than 10 µM; in [4] it was more than 30 µM.

For the compound `COc1ccc2[nH]c([S+]([O-])Cc3ncc(C)c(OC)c3C)nc2c1` (stereo not given) [OMEPRAZOLE], the AC50 at Estrogen receptor was more than 30 µM.

On to `CC(CN1c2ccccc2Sc2ccccc21)N(C)C` (stereo not given) [PROMETHAZINE], for which the half-maximal activity concentration (AC50) on B2 bradykinin receptor was more than 30 µM; on Histamine H3 receptor it was more than 10 µM; on Adenosine receptor A3, more than 30 µM; at D(3) dopamine receptor, 0.28 µM; on Adenosine receptor A1, more than 30 µM; in assay [1], more than 10 µM. Moreover, the concentration at half-maximal activity (AC50) in assay [2] was more than 30 µM; in [3], more than 10 µM; in assay [4], more than 30 µM.

As to `CCCc1cc(=O)[nH]c(=S)[nH]1` [PROPYLTHIOURACIL], the AC50 is more than 10 µM at B2 bradykinin receptor; more than 10 µM on Histamine H3 receptor; more than 10 µM on Adenosine receptor A3; more than 30 µM at D(3) dopamine receptor; more than 10 µM at Adenosine receptor A1; more than 10 µM in assay [1]. The AC50 in assay [2], in assay [3] and in [4] was more than 10 µM throughout.

In the case of `Cn1cc(C(=O)[C@@H]2CCc3nc[nH]c3C2)c2ccccc21` [RAMOSETRON], the AC50 (on B2 bradykinin receptor; on Histamine H3 receptor; at Adenosine receptor A3; on D(3) dopamine receptor; on Adenosine receptor A1; in [1]) was more than 30 µM in each case. Also, the AC50 in assay [2], in assay [3] and in [4] was more than 30 µM throughout.

In the case of `CN(CCOc1ccc(CC2SC(=O)NC2=O)cc1)c1ccccn1` (stereo not given) [ROSIGLITAZONE], the AC50 (on B2 bradykinin receptor; at Histamine H3 receptor; on Adenosine receptor A3; on D(3) dopamine receptor; on Adenosine receptor A1; in assay [1]) was more than 30 µM in each case. For the same compound, the AC50 in [2], in assay [3] and in assay [4] was more than 30 µM in each case.

On Estrogen receptor, `C[N+](C)(C)CCOC(=O)CCC(=O)OCC[N+](C)(C)C` [SUXAMETHONIUM] returned a half-maximal activity concentration (AC50) of more than 30 µM.

As for `Cc1ccc(C(=O)c2ccc(CC(=O)O)n2C)cc1` [TOLMETIN], the AC50 on Estrogen receptor was more than 30 µM.

Take `C[C@]12C=CC(=O)C=C1CC[C@H]1[C@@H]3C[C@@H](O)[C@](O)(C(=O)CO)[C@@]3(C)C[C@H](O)[C@@]12F` [TRIAMCINOLONE]: the AC50 on Estrogen receptor was more than 30 µM.

As for `CC(C)C[C@H](NC(=O)[C@@H](O)[C@H](N)Cc1ccccc1)C(=O)O` [UBENIMEX], the AC50 (on Adenosine receptor A3; on D(3) dopamine receptor; in assay [1]; in assay [2]; on Estrogen receptor) was more than 30 µM in each case.

As for `CC(C)[C@H](N)C(=O)OCCOCn1cnc2c(=O)[nH]c(N)nc21` [VALACYCLOVIR], the AC50 at B2 bradykinin receptor was more than 30 µM; on Histamine H3 receptor it was more than 10 µM; at Adenosine receptor A3, more than 30 µM; at D(3) dopamine receptor, more than 10 µM; on Adenosine receptor A1 it was more than 30 µM; in [1] it was more than 10 µM. Moreover, the AC50 is more than 30 µM in assay [2], more than 10 µM in assay [3] and more than 30 µM in assay [4].

For `CCC1=C[C@@H]2CN(C1)Cc1c([nH]c3ccccc13)[C@@](C(=O)OC)(c1cc3c(cc1OC)N(C)[C@H]1[C@@](O)(C(=O)OC)[C@H](OC(C)=O)[C@]4(CC)C=CCN5CC[C@]31[C@@H]54)C2` [VINORELBINE], the AC50 on Estrogen receptor was more than 30 µM.

Usually AC50 stands for the midpoint of the concentration-response curve, whichever way the signal moves.
